Experimental data taken from patent US8431703B2, “Pyrrolopyridine compounds and their use in treating disease” (Novartis AG, priority 2005, dated 2013).

Assays:
human CRTh2 [1] = target: T1, human CRTh2 (Homo sapiens, UniProt Q9Y5Y4); experiment: CRTH2 cAMP functional assay in CHO.K1-CRTh2 cells; type: cell-based; parameters: expressed in transfected cells; host or cells: CHO.K1-CRTh2 cells; conditions: inhibition of PGD2-mediated attenuation of forskolin-induced cAMP accumulation
T1 sequence (Q9Y5Y4 1-395): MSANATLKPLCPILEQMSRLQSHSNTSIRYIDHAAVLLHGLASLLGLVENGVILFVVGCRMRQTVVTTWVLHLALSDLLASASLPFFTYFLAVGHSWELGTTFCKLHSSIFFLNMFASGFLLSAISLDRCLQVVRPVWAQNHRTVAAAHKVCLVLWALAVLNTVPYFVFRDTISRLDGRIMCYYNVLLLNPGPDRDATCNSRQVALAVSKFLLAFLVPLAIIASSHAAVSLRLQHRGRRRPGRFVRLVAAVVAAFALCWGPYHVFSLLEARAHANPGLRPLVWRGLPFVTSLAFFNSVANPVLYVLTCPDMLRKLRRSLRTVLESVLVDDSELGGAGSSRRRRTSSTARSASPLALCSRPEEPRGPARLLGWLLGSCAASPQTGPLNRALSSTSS
Experimental: This assay is conducted in CHO.K1-CRTh2 cells. cAMP is generated in the cell by stimulating cells with 5 μM forskolin, an adenylate cyclase activator. PGD2 is added to activate the CRTh2 receptor which results in the attenuation of the forskolin-induced cAMP accumulation. Potential CRTh2 antagonists are tested for their ability to inhibit the PGD2-mediated attenuation of the forskolin-induced cAMP accumulation in CHO.K1-CRTh2 cells.
For each concentration value on the dose-response curve, test compounds are prepared in assay stimulation buffer (HBSS, 5 mM HEPES, 10 μM IBMX±0.1% human serum albumin) containing DMSO (3% vol/vol) and 5 μL/well is added to an assay plate (384 well white optiplate).
CHO.K1-CRTh2 cultured in tissue culture flasks are washed with PBS and harvested with dissociation buffer. Cells are washed with PBS and resuspended in stimulation buffer to a concentration of 0.4×10^6/mL and added to the assay plate (10 μL/well).
The assay plate is incubated at room temperature on a shaker for 15 minutes.
A mix of agonist (10 nM Prostaglandin D2) and 5 μM forskolin is prepared in assay stimulation buffer and added to the assay plate (5 μL/well).
In addition, a cAMP standard is serially diluted in assay stimulation buffer and added to separate empty wells on the assay plate (20 μL/well). The cAMP standard allows for the quantification of cAMP generated in CHO.K1-CRTH2 cells.
The assay plate is incubated at room temperature on a shaker for 60 minutes.
Cell lysis buffer (Lysis buffer: Milli-Q H20, 5 mM HEPES, 0.3% Tween-20, 0.1% human serum albumin) is added to a bead mix (containing Alphascreen™ anti-cAMP acceptor beads 0.06 units/IL, Alphascreen™ streptavidin-coated donor beads 0.06 units/μL, biotinylated cAMP 0.06 units/μL, 10 μM IBMX) is prepared under darkened conditions 60 minutes prior to addition to the assay plate. The resulting lysis mix is added to all wells of the assay plate (40 μL/well).
The assay plate is sealed with Topseal-S™ and incubated in the dark at room temperature on a shaker for 45 minutes. The plate is then counted using a Packard Fusion™ instrument.
The resulting counts per minute are converted to nM cAMP by using the prepared cAMP standard curve. IC50 values (concentration of CRTh2 antagonist required to inhibit 50% of the PGD2-mediated attenuation of forskolin-induced cAMP accumulation in CHO.K1-CRTh2 cells) are then determined using Prism™ software.

human CRTh2 [2] = target: T1, human CRTh2; experiment: CRTh2 [3H]-PGD2 binding assay (filtration binding protocol; called SPA binding assay); parameters: expressed in transfected cells; host or cells: CHO.K1 (Chinese Hamster Ovary) cells, membrane preparation; conditions: competition with [3H]-PGD2 2.5 nM, CHO.K1-CRTh2 membranes
Experimental: The binding of CRTh2 modulators is determined using membranes prepared from human CRTh2-expressing Chinese Hamster Ovary cells (CHO.K1-CRTh2). To produce cell membranes CHO.K1-CRTh2 cells cultured in roller bottles are harvested using cell dissociation buffer (Invitrogen). The cells are pelleted by centrifugation (167 g, 5 min). The cell pellet is incubated in hypotonic buffer (15 mM Tris-OH, 2 mM MgCl2, 0.3 mM EDTA, 1 mM EGTA, 1× Complete™ tablet) at 4° C. for 30 min. At 4° C. cells are homogenized using a Polytron® (IKA Ultra Turrax T25) for 5 bursts of 1 second. The homogenate is centrifuged (Beckman Optima™ TL Ultracentrifuge, 48000 g, 30 min at 4° C.). The supernatant is discarded and the membrane pellet resuspended in homogenisation buffer (75 mM Tris-OH, 12.5 mM MgCl2, 0.3 mM EDTA, 1 mM EGTA, 250 mM Sucrose, 1× Complete™ tablet. Membrane preparations are aliquoted and stored at […]. The protein content is estimated using Bradford Protein Assay Dye (Bio Rad).
The binding of [^3H]-PGD2 (157 Ci/mmol) to CHO.K1-CRTh2 membranes is determined in the absence (total binding) and presence (non-specific binding) of unlabelled PGD2 (1 μM). Subtraction of the cpm (counts per minute) of [^3H]-PGD2 binding in presence of excess unlabelled PGD2 from that observed in the absence of excess unlabelled PGD2 is defined as specific binding. Active CRTh2 modulators are able to compete with [^3H]-PGD2 for binding to the CRTh2 receptor and are identified in a decrease in the number of cpm bound.
The assay is performed in Greiner U-bottomed 96 well-plates, in a final volume of 100 μl per well. CHO.K1-CRTh2 membranes were diluted in assay buffer (10 mM HEPES-KOH (pH 7.4), 1 mM EDTA and 10 mM MnCl2) and 10 μg are added to each well. [^3H]-PGD2 is diluted in assay buffer and added to each well at a final concentration of 2.5 nM. To determine non-specific binding, [^3H]-PGD2 binding to the CRTh2 receptor is competed with using unlabelled PGD2 at a final well concentration of 1 μM. The experiment is done in triplicate, with reagents added to the wells as follows: • 25 μL assay buffer for total binding or • 25 μL PGD2 to determine non-specific binding • 25 μL [^3H]PGD2 • 50 μL membranes • 25 μL test compound in DMSO/assay buffer
The plates are incubated at room temperature on a shaker for 1 hour, and then harvested (Tomtec Harvester 9600) onto GF/C filter plates using wash buffer (10 mM HEPES-KOH, pH 7.4). […] Plates are then counted using a Packard Top Count instrument, Plates are then read on the Packard Topcount with the 3H Scintillation program (1 min per well). • Ki (dissocation constant for the inhibition) values for the CRTh2 modulators are reported. Ki values are determined using Sigma Plot™ software, using the Cheng-Prussoff equation. […]

Row | IC50 (human CRTh2 [1]) [nM] | Ki (human CRTh2 [2]) [nM] | SMILES
1 | 60 | 30 | Cc1c(CC(=O)O)c2cccnc2n1Cc1ccc(S(=O)(=O)N2CCOCC2)cc1 [Example 1, {2-methyl-1-[4-(morpholine-4-sulfonyl)-benzyl]-1H-pyrrolo[2,3-b]pyridine-3-yl}acetic acid]
2 | 83 | 34 | Cc1c(CC(=O)O)c2cccnc2n1Cc1ccc(S(=O)(=O)N2CCCC2)cc1 [Example 2]
3 | 42 | 240 | Cc1c(CC(=O)O)c2cccnc2n1Cc1ccc(S(=O)(=O)N2CCCCC2)cc1 [Example 4]
4 | 18 | 2 | Cc1c(CC(=O)O)c2cccnc2n1Cc1ccc(S(=O)(=O)N(C)C2CCCCC2)cc1 [Example 6, {1-[4-(Cyclohexyl-methyl-sulfamoyl)-benzyl]-2-methyl-1H-pyrrolo[2,3-b]pyridin-3-yl}-acetic acid]
